Organism: Rattus norvegicus
Assay: DrugMatrix - Regimen: Daily Repeat
Assay type: toxicity, organism-based, Sprague-Dawley
Parameters: regimen Daily Repeat, gender Male, age 6-8 weeks
Conditions: in vivo, iv, 0 mg/kg, dose level Control, vehicle 100 % SALINE; for ABSOLUTE BASOPHIL / ABSOLUTE EOSINOPHIL / ABSOLUTE LYMPHOCYTE / ABSOLUTE MONOCYTE / ABSOLUTE SEGMENTED NEUTROPHIL / BASOPHIL / EOSINOPHIL / ERYTHROCYTE COUNT / HEMATOCRIT / HEMOGLOBIN / LEUKOCYTE COUNT / LYMPHOCYTE / MEAN CORPUSCULAR HEMOGLOBIN / MEAN CORPUSCULAR HEMOGLOBIN CONCENTRATION / MEAN CORPUSCULAR VOLUME / MONOCYTE / NEUTROPHIL / NUCLEATED RED BLOOD CELLS / PLATELET COUNT: tissue Blood; for ALANINE AMINOTRANSFERASE / ALBUMIN / ALKALINE PHOSPHATASE / ASPARTATE AMINOTRANSFERASE / BLOOD UREA NITROGEN / CARBON DIOXIDE / CHLORIDE / CHOLESTEROL / CREATINE PHOSPHOKINASE / CREATININE / GLUCOSE / LACTATE DEHYDROGENASE / LIPASE / PHOSPHORUS / POTASSIUM / SODIUM / TOTAL BILIRUBIN / TOTAL PROTEIN / URIC ACID: tissue Plasma

C[N+](C)(C)CCOC(=O)CCC(=O)OCC[N+](C)(C)C.[Cl-].[Cl-] [SUCCINYLCHOLINE CHLORIDE]
ABSOLUTE BASOPHIL (72 h, time 3 day): 0 CELLS/uL
ABSOLUTE EOSINOPHIL (72 h, time 3 day): 193.5 CELLS/uL
ABSOLUTE LYMPHOCYTE (72 h, time 3 day): 15717.5 CELLS/uL
ABSOLUTE MONOCYTE (72 h, time 3 day): 389.33 CELLS/uL
ABSOLUTE SEGMENTED NEUTROPHIL (72 h, time 3 day): 1883 CELLS/uL
BASOPHIL (72 h, time 3 day): 0%
EOSINOPHIL (72 h, time 3 day): 1.17%
ERYTHROCYTE COUNT (72 h, time 3 day): 5.68 x10E6/uL
HEMATOCRIT (72 h, time 3 day): 35.83%
HEMOGLOBIN (72 h, time 3 day): 13.48 G/DL
LEUKOCYTE COUNT (72 h, time 3 day): 18.18 x10E3/uL
LYMPHOCYTE (72 h, time 3 day): 86.67%
MEAN CORPUSCULAR HEMOGLOBIN (72 h, time 3 day): 23.8 pg
MEAN CORPUSCULAR HEMOGLOBIN CONCENTRATION (72 h, time 3 day): 37.68 G/DL
MEAN CORPUSCULAR VOLUME (72 h, time 3 day): 63.27 fL
MONOCYTE (72 h, time 3 day): 2.17%
NEUTROPHIL (72 h, time 3 day): 10%
NUCLEATED RED BLOOD CELLS (72 h, time 3 day): 0 /100WBC
PLATELET COUNT (72 h, time 3 day): 1186.33 x10E3/uL
ALANINE AMINOTRANSFERASE (72 h, time 3 day): 68.5 u/L
ALBUMIN (72 h, time 3 day): 4.37 G/DL
ALKALINE PHOSPHATASE (72 h, time 3 day): 396.33 u/L
ASPARTATE AMINOTRANSFERASE (72 h, time 3 day): 92.5 u/L
BLOOD UREA NITROGEN (72 h, time 3 day): 18 mg/dL
CARBON DIOXIDE (72 h, time 3 day): 24.33 mmol/L
CHLORIDE (72 h, time 3 day): 102.4 MEQ/L
CHOLESTEROL (72 h, time 3 day): 67.17 mg/dL
CREATINE PHOSPHOKINASE (72 h, time 3 day): 378.67 u/L
CREATININE (72 h, time 3 day): 0.19 mg/dL
GLUCOSE (72 h, time 3 day): 178.33 mg/dL
LACTATE DEHYDROGENASE (72 h, time 3 day): 245.17 u/L
LIPASE (72 h, time 3 day): 9.2 u/L
PHOSPHORUS (72 h, time 3 day): 12.37 mg/dL
POTASSIUM (72 h, time 3 day): 6.48 MEQ/L
SODIUM (72 h, time 3 day): 143.28 MEQ/L
TOTAL BILIRUBIN (72 h, time 3 day): 0.23 mg/dL
TOTAL PROTEIN (72 h, time 3 day): 5.65 G/DL
URIC ACID (72 h, time 3 day): 1.6 mg/dL
ABSOLUTE BASOPHIL (120 h, time 5 day): 0 CELLS/uL
ABSOLUTE EOSINOPHIL (120 h, time 5 day): 27.5 CELLS/uL
ABSOLUTE LYMPHOCYTE (120 h, time 5 day): 13593.17 CELLS/uL
ABSOLUTE MONOCYTE (120 h, time 5 day): 576 CELLS/uL
ABSOLUTE SEGMENTED NEUTROPHIL (120 h, time 5 day): 1836.67 CELLS/uL
BASOPHIL (120 h, time 5 day): 0%
EOSINOPHIL (120 h, time 5 day): 0.17%
ERYTHROCYTE COUNT (120 h, time 5 day): 5.99 x10E6/uL
HEMATOCRIT (120 h, time 5 day): 37.42%
HEMOGLOBIN (120 h, time 5 day): 13.78 G/DL
LEUKOCYTE COUNT (120 h, time 5 day): 16.03 x10E3/uL
LYMPHOCYTE (120 h, time 5 day): 85.17%
MEAN CORPUSCULAR HEMOGLOBIN (120 h, time 5 day): 23.08 pg
MEAN CORPUSCULAR HEMOGLOBIN CONCENTRATION (120 h, time 5 day): 36.83 G/DL
MEAN CORPUSCULAR VOLUME (120 h, time 5 day): 62.6 fL
MONOCYTE (120 h, time 5 day): 3.5%
NEUTROPHIL (120 h, time 5 day): 11.17%
NUCLEATED RED BLOOD CELLS (120 h, time 5 day): 0 /100WBC
PLATELET COUNT (120 h, time 5 day): 1352.5 x10E3/uL
ALANINE AMINOTRANSFERASE (120 h, time 5 day): 49.83 u/L
ALBUMIN (120 h, time 5 day): 4.25 G/DL
ALKALINE PHOSPHATASE (120 h, time 5 day): 331.33 u/L
ASPARTATE AMINOTRANSFERASE (120 h, time 5 day): 86.17 u/L
BLOOD UREA NITROGEN (120 h, time 5 day): 19.5 mg/dL
CARBON DIOXIDE (120 h, time 5 day): 26.67 mmol/L
CHLORIDE (120 h, time 5 day): 103 MEQ/L
CHOLESTEROL (120 h, time 5 day): 67.5 mg/dL
CREATINE PHOSPHOKINASE (120 h, time 5 day): 346.17 u/L
CREATININE (120 h, time 5 day): 0.22 mg/dL
GLUCOSE (120 h, time 5 day): 170.67 mg/dL
LACTATE DEHYDROGENASE (120 h, time 5 day): 405.5 u/L
LIPASE (120 h, time 5 day): 8.83 u/L
PHOSPHORUS (120 h, time 5 day): 11.3 mg/dL
POTASSIUM (120 h, time 5 day): 6.06 MEQ/L
SODIUM (120 h, time 5 day): 143.4 MEQ/L
TOTAL BILIRUBIN (120 h, time 5 day): 0.17 mg/dL
TOTAL PROTEIN (120 h, time 5 day): 6.22 G/DL
URIC ACID (120 h, time 5 day): 1.63 mg/dL

Reference: ChEMBL document CHEMBL3885881, “DrugMatrix”
